Laboratory results as given in the NIST ThermoML archive (doi:10.1016/j.jct.2012.01.019).
Numbers after ± are expanded uncertainties.

Assay: activity coefficient (dimensionless); of the first substance listed, at infinite dilution; xn = mol fraction of the nth substance listed
Conditions: 101 kPa, Liquid, Chromatography, x1 = 0

Row | SMILES | activity coefficient (318.15 K) | activity coefficient (328.15 K) | activity coefficient (338.15 K) | activity coefficient (348.15 K) | activity coefficient (358.15 K) | activity coefficient (368.15 K)
1 | CCCCCCCCC [nonane] + COCC[N+]1(C)CCCCC1.O=S(=O)([N-]S(=O)(=O)C(F)(F)F)C(F)(F)F | 50.8 ± 2.4 | 46.3 ± 2.2 | 42 ± 2 | 38.2 ± 1.8 | 35.1 ± 1.6 | 32.4 ± 1.5
2 | CC(C)OC(C)C [diisopropyl ether] + COCC[N+]1(C)CCCCC1.O=S(=O)([N-]S(=O)(=O)C(F)(F)F)C(F)(F)F | 6.13 ± 0.42 | 6.03 ± 0.41 | 5.94 ± 0.4 | 5.84 ± 0.4 | 5.76 ± 0.39 | 5.69 ± 0.39
3 | CCOC(C)(C)C [2-ethoxy-2-methylpropane] + COCC[N+]1(C)CCCCC1.O=S(=O)([N-]S(=O)(=O)C(F)(F)F)C(F)(F)F | 5.82 ± 0.4 | 5.71 ± 0.39 | 5.62 ± 0.38 | 5.53 ± 0.38 | 5.44 ± 0.37 | 5.38 ± 0.37
4 | C#CCCCC [1-hexyne] + COCC[N+]1(C)CCCCC1.O=S(=O)([N-]S(=O)(=O)C(F)(F)F)C(F)(F)F | 2.98 ± 0.2 | 2.99 ± 0.2 | 3 ± 0.2 | 3.01 ± 0.2 | 3.02 ± 0.21 | 3.03 ± 0.21
5 | CCCC(=O)OC [methyl butanoate] + COCC[N+]1(C)CCCCC1.O=S(=O)([N-]S(=O)(=O)C(F)(F)F)C(F)(F)F | 1.22 ± 0.08 | 1.23 ± 0.08 | 1.24 ± 0.08 | 1.25 ± 0.08 | 1.26 ± 0.08 | 1.27 ± 0.08
6 | CCCCCC [hexane] + COCC[N+]1(C)CCCCC1.O=S(=O)([N-]S(=O)(=O)C(F)(F)F)C(F)(F)F | 16.9 ± 0.8 | 16 ± 0.7 | 15.1 ± 0.7 | 14.2 ± 0.7 | 13.5 ± 0.6 | 13 ± 0.6
7 | C1CCCCCCC1 [cyclooctane] + COCC[N+]1(C)CCCCC1.O=S(=O)([N-]S(=O)(=O)C(F)(F)F)C(F)(F)F | 18 ± 1.2 | 16.6 ± 1.1 | 15.4 ± 1.1 | 14.3 ± 1 | 13.2 ± 0.9 | 12.4 ± 0.8
8 | C1=CCCCC1 [cyclohexene] + COCC[N+]1(C)CCCCC1.O=S(=O)([N-]S(=O)(=O)C(F)(F)F)C(F)(F)F | 5.41 ± 0.37 | 5.21 ± 0.36 | 5 ± 0.34 | 4.83 ± 0.33 | 4.67 ± 0.32 | 4.53 ± 0.31
9 | CCC(C)O (centres undefined) [butan-2-ol] + COCC[N+]1(C)CCCCC1.O=S(=O)([N-]S(=O)(=O)C(F)(F)F)C(F)(F)F | 2.26 ± 0.15 | 2.07 ± 0.14 | 1.89 ± 0.13 | 1.74 ± 0.12 | 1.62 ± 0.11 | 1.52 ± 0.1
10 | CCCC(C)=O [pentan-2-one] + COCC[N+]1(C)CCCCC1.O=S(=O)([N-]S(=O)(=O)C(F)(F)F)C(F)(F)F | 0.786 ± 0.051 | 0.801 ± 0.052 | 0.813 ± 0.053 | 0.825 ± 0.053 | 0.837 ± 0.054 | 0.849 ± 0.054
11 | CC(C)(C)O [2-methylpropan-2-ol] + COCC[N+]1(C)CCCCC1.O=S(=O)([N-]S(=O)(=O)C(F)(F)F)C(F)(F)F | 1.87 ± 0.13 | 1.73 ± 0.12 | 1.61 ± 0.11 | 1.5 ± 0.1 | 1.42 ± 0.09 | 1.34 ± 0.09
12 | CCCCCCC [heptane] + COCC[N+]1(C)CCCCC1.O=S(=O)([N-]S(=O)(=O)C(F)(F)F)C(F)(F)F | 24.5 ± 1.1 | 22.9 ± 1.1 | 21.2 ± 1 | 19.8 ± 0.9 | 18.4 ± 0.9 | 17.5 ± 0.8
13 | CC(C)=O [acetone] + COCC[N+]1(C)CCCCC1.O=S(=O)([N-]S(=O)(=O)C(F)(F)F)C(F)(F)F | 0.462 ± 0.036 | 0.471 ± 0.037 | 0.48 ± 0.037 | 0.49 ± 0.037 | 0.498 ± 0.038 | 0.507 ± 0.038
14 | CCC(C)(C)OC [2-methoxy-2-methylbutane] + COCC[N+]1(C)CCCCC1.O=S(=O)([N-]S(=O)(=O)C(F)(F)F)C(F)(F)F | 3.74 ± 0.25 | 3.74 ± 0.25 | 3.73 ± 0.25 | 3.73 ± 0.25 | 3.73 ± 0.25 | 3.72 ± 0.25
15 | c1ccccc1 [benzene] + COCC[N+]1(C)CCCCC1.O=S(=O)([N-]S(=O)(=O)C(F)(F)F)C(F)(F)F | 0.912 ± 0.058 | 0.922 ± 0.058 | 0.934 ± 0.059 | 0.943 ± 0.059 | 0.951 ± 0.06 | 0.961 ± 0.06
16 | C1COCCO1 [1,4-dioxane] + COCC[N+]1(C)CCCCC1.O=S(=O)([N-]S(=O)(=O)C(F)(F)F)C(F)(F)F | 0.616 ± 0.043 | 0.636 ± 0.044 | 0.654 ± 0.045 | 0.673 ± 0.046 | 0.687 ± 0.046 | 0.705 ± 0.047
17 | CCOC(C)=O [ethyl acetate] + COCC[N+]1(C)CCCCC1.O=S(=O)([N-]S(=O)(=O)C(F)(F)F)C(F)(F)F | 0.916 ± 0.058 | 0.932 ± 0.059 | 0.948 ± 0.06 | 0.963 ± 0.061 | 0.975 ± 0.061 | 0.989 ± 0.062
18 | CCC(C)CC [3-methylpentane] + COCC[N+]1(C)CCCCC1.O=S(=O)([N-]S(=O)(=O)C(F)(F)F)C(F)(F)F | 14.7 ± 0.7 | 13.9 ± 0.6 | 13.2 ± 0.6 | 12.5 ± 0.6 | 11.9 ± 0.6 | 11.5 ± 0.5
19 | C=CCCCCCCCC [1-decene] + COCC[N+]1(C)CCCCC1.O=S(=O)([N-]S(=O)(=O)C(F)(F)F)C(F)(F)F | 36.2 ± 2.5 | 33.7 ± 2.3 | 31.4 ± 2.1 | 29.2 ± 2 | 27.4 ± 1.9 | 26 ± 1.8
20 | C#CCCCCC [1-heptyne] + COCC[N+]1(C)CCCCC1.O=S(=O)([N-]S(=O)(=O)C(F)(F)F)C(F)(F)F | 4.22 ± 0.29 | 4.21 ± 0.29 | 4.19 ± 0.29 | 4.17 ± 0.28 | 4.15 ± 0.28 | 4.15 ± 0.28
21 | C1CCCC1 [cyclopentane] + COCC[N+]1(C)CCCCC1.O=S(=O)([N-]S(=O)(=O)C(F)(F)F)C(F)(F)F | 6.73 ± 0.31 | 6.42 ± 0.29 | 6.13 ± 0.28 | 5.86 ± 0.27 | 5.63 ± 0.26 | 5.45 ± 0.25
22 | CCC[N+](=O)[O-] [1-nitropropane] + COCC[N+]1(C)CCCCC1.O=S(=O)([N-]S(=O)(=O)C(F)(F)F)C(F)(F)F | 0.724 ± 0.048 | 0.725 ± 0.048 | 0.726 ± 0.048 | 0.727 ± 0.048 | 0.727 ± 0.048 | 0.728 ± 0.048
23 | CCCO [propan-1-ol] + COCC[N+]1(C)CCCCC1.O=S(=O)([N-]S(=O)(=O)C(F)(F)F)C(F)(F)F | 2.13 ± 0.14 | 1.93 ± 0.13 | 1.77 ± 0.12 | 1.61 ± 0.11 | 1.5 ± 0.1 | 1.4 ± 0.09
24 | CC(C)CO [2-methyl-1-propanol] + COCC[N+]1(C)CCCCC1.O=S(=O)([N-]S(=O)(=O)C(F)(F)F)C(F)(F)F | 2.61 ± 0.18 | 2.34 ± 0.16 | 2.12 ± 0.14 | 1.92 ± 0.13 | 1.75 ± 0.12 | 1.62 ± 0.11
25 | C=CCCCCCC [oct-1-ene] + COCC[N+]1(C)CCCCC1.O=S(=O)([N-]S(=O)(=O)C(F)(F)F)C(F)(F)F | 18.1 ± 1.2 | 17 ± 1.2 | 16.1 ± 1.1 | 15.1 ± 1 | 14.4 ± 1 | 13.8 ± 0.9
26 | CO [methanol] + COCC[N+]1(C)CCCCC1.O=S(=O)([N-]S(=O)(=O)C(F)(F)F)C(F)(F)F | 1.37 ± 0.09 | 1.26 ± 0.08 | 1.17 ± 0.07 | 1.08 ± 0.07 | 1 ± 0.06 | 0.942 ± 0.059
27 | CCC(C)(C)C [2,2-dimethylbutane] + COCC[N+]1(C)CCCCC1.O=S(=O)([N-]S(=O)(=O)C(F)(F)F)C(F)(F)F | 13.5 ± 0.6 | 12.9 ± 0.6 | 12.4 ± 0.6 | 11.8 ± 0.5 | 11.3 ± 0.5 | 10.9 ± 0.5
28 | C1CCCCC1 [cyclohexane] + COCC[N+]1(C)CCCCC1.O=S(=O)([N-]S(=O)(=O)C(F)(F)F)C(F)(F)F | 9.72 ± 0.45 | 9.23 ± 0.42 | 8.71 ± 0.4 | 8.24 ± 0.38 | 7.81 ± 0.36 | 7.48 ± 0.34
29 | CC(C)O [propan-2-ol] + COCC[N+]1(C)CCCCC1.O=S(=O)([N-]S(=O)(=O)C(F)(F)F)C(F)(F)F | 1.92 ± 0.13 | 1.76 ± 0.12 | 1.61 ± 0.11 | 1.47 ± 0.1 | 1.37 ± 0.09 | 1.28 ± 0.08
